Patent publication US8673910B2, “Proteasome inhibitors for selectively inducing apoptosis in cancer cells” (H. Lee Moffitt Cancer Center and Research Institute, priority 2008, dated 2014)
Like-named read-outs stand apart in the source and are kept apart here.

Assays:
[1] = molecular target: T1, chymotrypsin-like (CT-L) activity of purified 20S rabbit proteasome (Oryctolagus cuniculus, UniProt G1T4Q9); test: Proteolytic activity of purified 20S proteasome, fluorogenic substrate Suc-Leu-Leu-Val-Tyr-AMC; format: biochemical; details: for IC50 / proteasome (chymotrypsin-like) inhibitory activity, in words: purified rabbit 20S proteasome; for decrease of proteasome inhibition activity relative to comparator compound: 14u, 14v vs linear acetic acid analogues, 14q vs lead compound 10a
T1 sequence (G1T4Q9 1-263): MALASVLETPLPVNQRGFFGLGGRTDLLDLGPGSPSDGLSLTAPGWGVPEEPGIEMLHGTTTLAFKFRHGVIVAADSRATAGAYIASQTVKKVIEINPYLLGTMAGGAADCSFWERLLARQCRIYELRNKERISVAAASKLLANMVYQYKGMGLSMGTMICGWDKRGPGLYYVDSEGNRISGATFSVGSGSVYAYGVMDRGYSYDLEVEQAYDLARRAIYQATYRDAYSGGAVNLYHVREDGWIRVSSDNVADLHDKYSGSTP
Protocol: The inhibitory activity of the compounds was calculated based on vehicle control). This technique monitors the hydrolytic release of a coumarin species from a synthetic peptide substrate.
The assay was conducted by using a fluorogenic peptide as substrate to test synthesized compounds for inhibitory activity against the chymotrypsin-like activity of the purified rabbit 20S proteasome. Briefly, 70 ng of purified 20S proteasome was incubated with 20 μM Suc-Leu-Leu-Val-Tyr-AMC for 1 hour at 37° C. in 100 μl of assay buffer (50 mM Tris-HCl, pH 7.6) with or without inhibitors. After incubation, production of hydrolyzed 7-amido-4-methyl-coumarin (AMC) was measured using a WALLAC Victor2 1420 Multilabel Counter with an excitation filter of 355 nm and an emission filter of 460 nm (Perkin Elmer Life Sciences, Turku, Finland). The inhibitory activity of the compounds was calculated based on vehicle control.

[2] = molecular target: T2, CT-L activity of the proteasome in MCF-7 human breast cancer cells (Homo sapiens, UniProt P20618+P28074); test: Proteolytic activity in cell lysates of treated intact MCF-7 cells; format: cell-based; details: intact cells treated 16 h, CT-L measured in cell lysates; two determinations where two values
T2 construct: endogenous in cells; host or cells: MCF-7
Protocol: Human MCF-7 breast cancer cells were cultured in DMEM medium containing 10% fetal calf serum (FCS) and 100 units/ml of penicillin and 100 μg/ml of streptomycin. Cells were maintained at 37° C. in a humidified incubator in an atmosphere of 5% CO2. Cells were treated with different concentrations of PI-083, YG1-080, YG1-075, HL2-090-2, HL2-090-4, HL2-090-6, and HL2-090-9 or vehicle control (DMSO) for 16 h.
Intact cells were treated with compounds and lysates prepared as described above. Cell lysates (5 μg) was incubated with 20 μM Suc-Leu-Leu-Val-Tyr-AMC for the CT-L activity for 1 h at 37° C. in 100 μl of assay buffer (50 mM Tris-HCl, pH 7.6). After incubation, production of hydrolyzed 7-amido-4-methyl-coumarin (AMC) groups was measured using a WALLAC Victor^2 1420 Multilabel Counter with an excitation filter of 355 nm and an emission filter of 460 nm (Perkin Elmer Life Sciences, Turku, Finland).

[3] = system: MCF-7 breast cancer cells; test: MTT metabolism assay; format: cell-based, human; details: MCF-7, 72 h (Table 6), read-out: IC50 for cell viability measured by MTT assay in MCF-7 human breast cancer cells
Protocol: Cells were plated in 96-well plates in 100 μl medium and allowed to attach overnight. […] Media was aspirated after 24 or 72 hours and replaced with 100 μl complete media containing 1 mg/ml MTT and incubated for three hours at 37° C. in 5% CO2 humidified incubator. Media was then aspirated and DMSO was added. Cells were incubated for 10 min at room temperature while shaking, and the absorbance was determined at 540 nm using a μQuant spectrophotometric plate reader (Bio-TEK, Winooski, Vt.).
Cells were plated in 96-well plates in 100 μl medium and allowed to attach overnight. Cells were then incubated for 72 h with varying concentrations of PI-083, YG1-080, YG1-075, HL2-090-2, HL2-090-4, HL2-090-6, and HL2-090-9 or vehicle control (DMSO). Media was aspirated and replaced with 100 μl complete media containing 1 mg/ml MTT and incubated for three hours at 37° C. in 5% CO2 humidified incubator. Media was then aspirated and DMSO was added. Cells were incubated for 10 min at room temperature while shaking, and the absorbance was determined at 540 nm using a μQuant spectrophotometric plate reader (Bio-TEK, Winooski, Vt.).

[4] = PI-083 derivatives (Table 7, naphthoquinone library), read-out: IC50 (μM) Chymotrypsin-like activity
[5] = hydronaphthoquinone sulfonamides (Table 9), read-out: IC50 (μM), inhibition of chymotrypsin-like activity

O=C1C(Cl)=C(Nc2ccc(S(=O)(=O)Nc3cnn(-c4ccccc4)c3)cc2)C(=O)c2ccccc21 [Compound 2b, 4-(3-chloro-1,4-dioxo-1,4-dihydronaphthalen-2-ylamino)-N-(1-phenyl-1H-pyrazol-4-yl)benzenesulfonamide]
melting point: 230 to 231 °C | IC50 [1, 4]: 7.4 µM | IC50 [2]: > 10 µM

Cc1cc(NS(=O)(=O)c2ccc(NC3=C(Cl)C(=O)c4ccccc4C3=O)cc2)no1 [Compound 2d, 4-(3-chloro-1,4-dioxo-1,4-dihydronaphthalen-2-ylamino)-N-(5-methylisoxazol-3-yl)benzenesulfonamide]
melting point: 215 to 217 °C | IC50 [1, 4]: 5.9 µM | IC50 [2]: > 10 µM

Cc1nnc(NS(=O)(=O)c2ccc(NC3=C(Cl)C(=O)c4ccccc4C3=O)cc2)s1 [Compound 2f, 4-(3-chloro-1,4-dioxo-1,4-dihydronaphthalen-2-ylamino)-N-(5-methyl-1,3,4-thiadiazol-2-yl)benzenesulfonamide]
melting point: 220 °C (dec.) | IC50 [1, 4]: 3.9 µM | IC50 [2]: > 10 µM

Cc1noc(NS(=O)(=O)c2ccc(NC3=C(Cl)C(=O)c4ccccc4C3=O)cc2)c1C [Compound 2h, 4-(3-chloro-1,4-dioxo-1,4-dihydronaphthalen-2-ylamino)-N-(3,4-dimethylisoxazol-yl)-benzenesulfonamide]
melting point: 208 to 210 °C | IC50 [1, 4]: 6.4 µM | IC50 [2]: > 10 µM

O=C1C(Cl)=C(Nc2ccc(S(=O)(=O)Nc3nccs3)cc2)C(=O)c2ccccc21 [Compound 2s, 4-(3-chloro-1,4-dioxo-1,4-dihydronaphthalen-2-ylamino)-N-(thiazol-2-yl)benzene-sulfonamide]
melting point: 286 to 288 °C | IC50 [1, 4]: 3.3 µM | IC50 [2]: > 10 µM

O=S(=O)(Nc1ccc(O)c2ccccc12)c1cccs1 [Compound 3, N-(4-hydroxynaphthalen-1-yl)thiophene-2-sulfonamide]
proteasome (chymotrypsin-like) inhibitory activity, in words [1]: loss of the inhibitory activity

CCOC(=O)CSc1cc(NS(=O)(=O)c2cccs2)c2ccccc2c1O [Compound 9a, Ethyl 2-(1-hydroxy-4-(thiophene-2-sulfonamido)naphthalen-2-ylthio)acetate]
IC50 [1, 5]: 7.33 ± 2.82 µM

COC(=O)CCSc1cc(NS(=O)(=O)c2cccs2)c2ccccc2c1O [Compound 9b, Methyl 3-(1-hydroxy-4-(thiophene-2-sulfonamido)naphthalen-2-ylthio)propanoate]
IC50 [1, 5]: 4.99 ± 2.08 µM

CCOC(=O)CSc1cc(NS(=O)(=O)c2ccccc2)c2ccccc2c1O [Compound 9c, Ethyl 2-(1-hydroxy-4-(phenylsulfonamido)naphthalen-2-ylthio)acetate]
IC50 [1, 5]: 5.27 ± 2.23 µM

CCOC(=O)CSc1cc(NS(=O)(=O)c2ccc([N+](=O)[O-])cc2)c2ccccc2c1O [Compound 9e, Ethyl 2-(1-hydroxy-4-(4-nitrophenylsulfonamido)naphthalen-2-ylthio)acetate]
IC50 [1, 5]: 3.57 ± 1.53 µM

O=C(O)CSc1cc(NS(=O)(=O)c2cccs2)c2ccccc2c1O [Compound 10a, 2-(1-hydroxy-4-(thiophene-2-sulfonamido)naphthalen-2-ylthio)acetic acid]
IC50 ([3]; Homo sapiens, MCF7, 72 h): 7.67 ± 1.61 µM | IC50 [3]: 10.9 ± 2.77 µM | IC50 ([1]; hydronaphthoquinone sulfonamides (Table 9), listed as HLM-008182, read-out: IC50 (μM), inhibition of chymotrypsin-like activity): 0.65 ± 0.4 µM | IC50 [1, 5]: 1.3 ± 0.76 µM | proteasome (chymotrypsin-like) inhibitory activity, in words [1]: comparable proteasome inhibition activity to the commercial sample HLM-008182

O=C(O)CCSc1cc(NS(=O)(=O)c2cccs2)c2ccccc2c1O [Compound 10b, 3-(1-hydroxy-4-(thiophene-2-sulfonamido)naphthalen-2-ylthio)propanoic acid]
IC50 [1, 5]: > 10 µM

O=C(O)COc1cc(NS(=O)(=O)c2cccs2)c2ccccc2c1O [Compound 10d, 2-(1-hydroxy-4-(thiophene-2-sulfonamido)naphthalen-2-yloxy)acetic acid]
proteasome (chymotrypsin-like) inhibitory activity, in words [1]: diminished the inhibitory activity

O=C(O)CS(=O)(=O)c1cc(NS(=O)(=O)c2cccs2)c2ccccc2c1O [Compound 10f, 2-(1-hydroxy-4-(thiophene-2-sulfonamido)naphthalen-2-ylsulfonyl)acetic acid]
proteasome (chymotrypsin-like) inhibitory activity, in words [1]: diminished the inhibitory activity

Cn1nnnc1Sc1cc(NS(=O)(=O)c2cccs2)c2ccccc2c1O [Compound 14d, N-(4-hydroxy-3-(1-methyl-1H-tetrazol-5-ylthio)naphthalen-1-yl)thiophene-2-sulfonamide]
IC50 [1, 5]: 4.25 ± 2.13 µM | proteasome (chymotrypsin-like) inhibitory activity, in words [1]: comparable inhibition potency against proteasome to the lead compound

O=S(=O)(Nc1cc(Sc2ncn[nH]2)c(O)c2ccccc12)c1cccs1 [Compound 14e, N-(3-(1H-1,2,4-triazol-5-ylthio)-4-hydroxynaphthalen-1-yl)thiophene-2-sulfonamide]
proteasome (chymotrypsin-like) inhibitory activity, in words [1]: comparable inhibition potency against proteasome to the lead compound

CCSc1cc(NS(=O)(=O)c2cccs2)c2ccccc2c1O [Compound 14j, N-(3-(ethylthio)-4-hydroxynaphthalen-1-yl)thiophene-2-sulfonamide]
proteasome (chymotrypsin-like) inhibitory activity, in words [1]: the inhibitory activity totally lost

O=S(=O)(Nc1cc(SCCO)c(O)c2ccccc12)c1cccs1 [Compound 14k, N-(4-hydroxy-3-(2-hydroxyethylthio)naphthalen-1-yl)thiophene-2-sulfonamide]
proteasome (chymotrypsin-like) inhibitory activity, in words [1]: the inhibitory activity totally lost

COC(=O)CCSc1cc(NS(=O)(=O)c2cc(Cl)c(Cl)s2)c2ccccc2c1O [Compound 14m, Methyl-3-(4-(4,5-dichlorothiophene-2-sulfonamido)-1-hydroxynaphthalen-2-ylthio)propanoate]
IC50 [1, 5]: 1.18 ± 0.3 µM

O=C(O)CSc1cc(NS(=O)(=O)c2cc(Cl)c(Cl)s2)c2ccccc2c1O [Compound 14n, 2-(4-(4,5-dichlorothiophene-2-sulfonamido)-1-hydroxynaphthalen-2-ylthio)acetic acid]
IC50 [1, 5]: 2.07 ± 0.55 µM

O=C(O)CSc1cc(NS(=O)(=O)c2ccc(Cl)cc2)c2ccccc2c1O [Compound 14p, 2-(4-(4-chlorophenylsulfonamido)-1-hydroxynaphthalen-2-ylthio)acetic acid]
IC50 [1, 5]: 3.75 ± 0.3 µM

O=C(O)CSc1cc(NS(=O)(=O)c2ccc3ccccc3c2)c2ccccc2c1O [Compound 14q, 2-(1-hydroxy-4-(naphthalene-2-sulfonamido)naphthalen-2-ylthio)acetic acid]
decrease of proteasome inhibition activity relative to comparator compound [1]: 3 fold | IC50 [1, 5]: 4.83 ± 0.79 µM

O=C(O)c1ccccc1Sc1cc(NS(=O)(=O)c2ccc(-c3ccccc3)cc2)c2ccccc2c1O [Compound 14t, 2-(4-(biphenyl-4-ylsulfonamido)-1-hydroxynaphthalen-2-ylthio)benzoic acid]
IC50 [1, 5]: 2.19 ± 0.23 µM

CC(Sc1cc(NS(=O)(=O)c2ccc(Cl)cc2)c2ccccc2c1O)C(=O)O (stereo not shown) [Compound 14u, 2-(4-(4-chlorophenylsulfonamido)-1-hydroxynaphthalen-2-ylthio)propanoic acid]
decrease of proteasome inhibition activity relative to comparator compound [1]: ~2 fold | IC50 [1, 5]: 8.57 ± 0.67 µM

CC(Sc1cc(NS(=O)(=O)c2ccc3ccccc3c2)c2ccccc2c1O)C(=O)O (stereo not shown) [Compound 14v, 2-(1-hydroxy-4-(naphthalene-2-sulfonamido)naphthalen-2-ylthio)propanoic acid]
decrease of proteasome inhibition activity relative to comparator compound [1]: ~2 fold | IC50 [1, 5]: 9.11 ± 0.47 µM
